Patent US9365523B2, “Imidazolyl amide compounds and uses related thereto” (priority 2011, dated 2016)

What was measured:
[1] = system: MeV-Alaska; assay: Viral CPE-reduction assay; settings: Measles morbillivirus, read-out: EC50, suppression of viral cytopathic effect (CPE), CPE
Procedure: To rapidly pre-screen small libraries of compound analogs for antiviral activity, Vero-SLAM cells were infected with MeV-Alaska in four replicates per compound concentration in a 96-well plate format at an MOI of 0.4 pfu/cell in the presence of the inhibitor analyzed ranging from 75 μM to 293 nM in two-fold dilutions. At 96 hours post-infection, cell monolayers were subjected to crystal violet staining (0.1% crystal violet in 20% ethanol), and the absorbance of dried plates at 560 nm determined. Virus-induced cytopathicity was then calculated according to the formula [% rel. CPE=100-(experimental-minimum)/(maximum-minimum)*100], with minimum referring to infected, vehicle-treated wells and maximum to mock-infected wells.

[2] = system: MeV-Alaska; assay: Virus yield reduction assay, MeV; assay type: cell-based, measles virus; settings: Measles morbillivirus
[3] = system: influenza A/WSN (H1N1); assay: microbe, parasite or virus in culture; assay type: cell-based; settings: read-out: EC50, reduction of virus yield (WSN)
[4] = system: HPIV3; assay: Virus yield reduction assay, HPIV3; assay type: cell-based, human parainfluenzavirus type 3; settings: Human respirovirus 3

## CC(Sc1nc2ccccc2n1-c1ccc(CCO)cc1)C(=O)Nc1ccccc1Cl (centres unmarked)
[1]
  EC50: 4680 nM

## CCN1CCC(Cn2c(SC(C)C(=O)Nc3ccc(C)cc3Cl)nc3ccccc32)CC1 (centres unmarked)
[1]
  EC50: > 75000 nM

## CCN1CCCC1Cn1c(SC(C)C(=O)Nc2ccc(C)cc2Cl)nc2ccccc21 (centres unmarked) [drawing 214]
[1]
  EC50: 3580 nM

## Cc1ccc(NC(=O)C(C)Sc2nc3ccccc3n2CC2CCN(Cc3ccc(F)cc3)CC2)c(Cl)c1 (centres unmarked)
[1]
  EC50: 1180 nM

## Cc1ccc(NC(=O)C(C)Sc2nc3ccccc3n2-c2ccc(CCN3CCOCC3)cc2)c(Cl)c1 (centres unmarked)
[2]
  EC50: 111 nM
[3]
  EC50: 43 nM

## Cc1ccc(NC(=O)C(C)Sc2nc3ccccc3n2C2CC[N+](C)(C)CC2)c(Cl)c1 (centres unmarked)
[1]
  EC50: > 75000 nM

## Cc1ccc(NC(=O)C(C)Sc2nc3ccccc3n2-c2cccc(CN3CCN(C)CC3)c2)c(Cl)c1 (centres unmarked) [drawing 252]
[1]
  EC50: 1280 nM

## Cc1ccc(NC(=O)C(C)Sc2nc3ccccc3n2-c2cccc(CCN3CCOCC3)c2)c(Cl)c1 (centres unmarked)
[2]
  EC50: 12.9 nM
[3]
  EC50: 0.3 nM

## Cc1ccc(NC(=O)C(C)Sc2nc3ccccc3n2C2CCCCC2)c(Cl)c1 (centres unmarked) [drawing 216]
[1]
  EC50: 290 nM

## Cc1ccc(NC(=O)C(C)Sc2nc3ccccc3n2-c2ccc(CCNC3CCN(C(=O)OC(C)(C)C)CC3)cc2)c(Cl)c1 (centres unmarked)
[1]
  EC50: 4680 nM

## Cc1ccc(NC(=O)C(C)Sc2nc3ccccc3n2-c2cccc(CCN(C)C)c2)c(Cl)c1 (centres unmarked)
[1]
  EC50: 1220 nM

## COCCN1CCCC(n2c(SC(C)C(=O)Nc3ccc(C)cc3Cl)nc3ccccc32)C1 (centres unmarked)
[1]
  EC50: 1000 nM

## Cc1ccc(NC(=O)C(C)Sc2nc3ccccc3n2-c2cccc(CCN3CCCCC3)c2)c(Cl)c1 (centres unmarked)
[1]
  EC50: 1520 nM

## COc1ccc(-n2c(SC(C)C(=O)Nc3ccc(C)cc3Cl)nc3cccnc32)cc1 (centres unmarked) [drawing 227]
[1]
  EC50: 1650 nM

## CNCCc1ccc(-n2c(SC(C)C(=O)Nc3ccc(C)cc3Cl)nc3ccccc32)cc1 (centres unmarked) [drawing 226]
[1]
  EC50: 8720 nM

## Cc1ccc(NC(=O)C(C)Sc2nc3ccccc3n2N2CCN(C)CC2)c(Cl)c1 (centres unmarked)
[1]
  EC50: > 75000 nM

## COc1ccc(-n2c(S[C@H](C)C(=O)Nc3ccc(C)cc3Cl)nc3ccccc32)cc1
[2]
  EC50: 879 nM
[3]
  EC50: 157 nM

## Cc1ccc(NC(=O)C(C)Sc2nc3ccccc3n2-c2cccc(CCN3CCCC3)c2)c(Cl)c1 (centres unmarked)
[1]
  EC50: 1660 nM

## Cc1ccc(NC(=O)[C@H](C)Sc2nc3ccccc3n2-c2cccc(CCN3CCOCC3)c2)c(Cl)c1
[2]; MeV
  EC50: 10.8 nM
[3]
  EC50: 1.5 nM
[4]
  EC50: 16 nM

## CC(Sc1nc2ccccc2n1-c1ccc(CC=O)cc1)C(=O)Nc1ccccc1Cl (centres unmarked)
[1]
  EC50: 18800 nM

## Cc1ccc(NC(=O)C(C)Sc2nc3ccccc3n2C2CCN(C(=O)OC(C)(C)C)CC2)c(Cl)c1 (centres unmarked) [drawing 220]
[1]
  EC50: 600 nM

## Cc1ccc(NC(=O)[C@H](C)Sc2nc3ccccc3n2-c2ccccc2CN2CCN(C)CC2)c(Cl)c1
[2]; MeV
  EC50: 685 nM
[3]
  EC50: 4 nM
[4]
  EC50: 16 nM

## COc1ccc(-n2c(S[C@@H](C)C(=O)Nc3ccc(C)cc3Cl)nc3ccccc32)cc1
[2]; MeV
  EC50: 37.3 nM
[3]
  EC50: 5 nM
[4]
  EC50: 80 nM

## Cc1ccc(NC(=O)C(C)Sc2nc3ccccc3n2-c2ccc(CCO)cc2)c(Cl)c1 (centres unmarked) [drawing 224]
[1]
  EC50: 2500 nM

## Cc1ccc(NC(=O)[C@H](C)Sc2nc3ccccc3n2-c2ccc(CCN3CCOCC3)cc2)c(Cl)c1
[2]; MeV
  EC50: 179 nM
[3]
  EC50: 36 nM
[4]
  EC50: 80 nM

## Cc1ccc(NC(=O)C(C)Sc2nc3ccccc3n2CC2CCN(C(C)c3ccc(F)cc3)CC2)c(Cl)c1 (centres unmarked)
[1]
  EC50: 1170 nM

## Cc1ccc(NC(=O)C(C)Sc2nc3ccccc3n2[C@H]2CCCC[C@@H]2O)c(Cl)c1 (some centres unmarked)
[1]
  EC50: 872 nM

## Cc1ccc(NC(=O)C(C)Sc2nc3ccccc3n2-c2ccc(N3CCOCC3)cc2)c(Cl)c1 (centres unmarked) [drawing 232]
[1]
  EC50: 300 nM

## Cc1ccc(NC(=O)C(C)Sc2nc3ccccc3n2CC2CCN(C(=O)OC(C)(C)C)CC2)c(Cl)c1 (centres unmarked)
[1]
  EC50: 1310 nM

## Cc1ccc(NC(=O)[C@@H](C)Sc2nc3ccccc3n2-c2ccccc2CN2CCN(C)CC2)c(Cl)c1
[2]
  EC50: 466 nM
[3]
  EC50: 120 nM

## Cc1ccc(NC(=O)[C@@H](C)Sc2nc3ccccc3n2-c2cccc(CCN3CCOCC3)c2)c(Cl)c1
[2]
  EC50: 212 nM
[3]
  EC50: 108 nM

## Cc1ccc(NC(=O)C(C)Sc2nc3ccccc3n2-c2ccc(CCNCCN3CCOCC3)cc2)c(Cl)c1 (centres unmarked)
[1]
  EC50: 1910 nM

## Cc1ccc(NC(=O)C(C)Sc2nc3ccccc3n2-c2ccccc2CN2CCN(C)CC2)c(Cl)c1 (centres unmarked) [drawing 259]
[2]
  EC50: 40.8 nM
[3]
  EC50: 8 nM

## Cc1ccc(NC(=O)[C@@H](C)Sc2nc3ccccc3n2-c2ccc(CCN3CCOCC3)cc2)c(Cl)c1
[2]
  EC50: 527 nM
[3]
  EC50: 117 nM

## COc1ccc(-n2c(SC(C)C(=O)Nc3ccc(C)cc3Cl)nc3ccccc32)cc1 (centres unmarked) [drawing 253]
[3]
  EC50: 13.2 nM
[4]
  EC50: 80 nM

## Cc1ccc(NC(=O)C(C)Sc2nc3ccccc3n2-c2ccccc2CO)c(Cl)c1 (centres unmarked)
[1]
  EC50: 800 nM

## Cc1ccc(NC(=O)C(C)Sc2nc3ccccc3n2C2CCN(C)CC2)c(Cl)c1 (centres unmarked) [drawing 218]
[1]
  EC50: 1500 nM
